Type in all cases: biochemical
Assay [1] concerns the target T1, PIP4K2B (Homo sapiens, UniProt P78356).
T1 construct: made in house; host or cells: E. coli
T1 sequence (P78356 1-416): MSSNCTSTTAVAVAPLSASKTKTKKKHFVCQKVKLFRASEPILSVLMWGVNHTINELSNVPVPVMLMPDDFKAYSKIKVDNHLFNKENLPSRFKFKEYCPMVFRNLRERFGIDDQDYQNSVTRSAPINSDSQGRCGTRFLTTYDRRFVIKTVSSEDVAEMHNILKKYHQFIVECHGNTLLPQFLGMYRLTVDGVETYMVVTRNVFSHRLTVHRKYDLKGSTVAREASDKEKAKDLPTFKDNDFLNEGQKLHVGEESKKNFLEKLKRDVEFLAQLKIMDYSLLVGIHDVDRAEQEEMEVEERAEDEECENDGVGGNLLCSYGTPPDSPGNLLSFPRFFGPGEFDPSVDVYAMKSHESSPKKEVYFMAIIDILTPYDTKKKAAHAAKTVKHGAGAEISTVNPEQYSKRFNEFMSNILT
Description: Trans-FI P kinase assay PIP4K2B (PIP4KtypeIIB inhibition assay). The following applies: compounds listed under IC50 bin headings; 100 uM GTP; read-out: Trans-FI P kinase assays: PIP4K2B IC50. The method, boiled down:
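Transcreener FI fluorescence read-out of GDP formed by E. coli-expressed GST-PIP4K2B (5 nM) using 100 uM GTP and 80 uM PI5P with DOPE carrier lipid, pH 7.3, 2 h reaction. Compounds (up to 4.8 uM) were preincubated with enzyme 1 h at 27 C; IC50 fitted from residual activity relative to no-inhibitor control.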

Assay [2] deals with T2, PIP4K 2A (Homo sapiens, UniProt P48426).
T2 sequence (P48426 1-406): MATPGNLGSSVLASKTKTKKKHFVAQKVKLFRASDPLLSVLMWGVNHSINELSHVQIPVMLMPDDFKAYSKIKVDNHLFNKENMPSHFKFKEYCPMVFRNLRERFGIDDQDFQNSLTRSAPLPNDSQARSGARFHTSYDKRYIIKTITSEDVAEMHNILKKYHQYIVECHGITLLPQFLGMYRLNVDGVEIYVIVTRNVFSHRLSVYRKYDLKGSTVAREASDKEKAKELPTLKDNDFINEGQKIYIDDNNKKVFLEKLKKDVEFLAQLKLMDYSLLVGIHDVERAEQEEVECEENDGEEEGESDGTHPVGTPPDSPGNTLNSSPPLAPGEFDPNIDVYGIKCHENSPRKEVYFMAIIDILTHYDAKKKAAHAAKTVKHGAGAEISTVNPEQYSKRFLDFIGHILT
Description: Kinase Assay PIP4K2 A (PIP4KtypeIIA inhibition assay). On the set-up: made in house; host or cells: E. coli. The following applies: compounds listed under IC50 bin headings. From the text:
GST tagged PIP4KtypeIIA and B enzymes were overexpressed in E. Coli and purified to >80% homogeneity. Phosphatidyl inositol-5-phosphate (PI5P, Cat. #850152, Avanti Polar Lipids Inc.) was used as the lipid substrate and phosphatidyl ethanolamine (DOPE 18:1, Cat. #850725, Avanti Polar Lipids Inc.) was used as the carrier lipid for assays. Ultrapure ATP and GTP was purchased from Bellbrooke Labs. ADP Glo reagents were obtained from Promega. Transcreener FI reagent was obtained from Bellbrooke labs.
Enzyme preparation: GST-tagged PIP4KtypeIIA (5 uL, 1.43 mg/mL) was diluted (1:10) to 50 uL using HNE buffer. From the 1:10 diluted stock, a 6.4 uL aliquot was diluted further to 5 mL using HNE buffer to yield 5× enzyme stock (2.5 nM).
Lipid Preparation: In a 10 mL pyrex glass vial, 1 ug of PI5P and 1 ug of DOPE were suspended in 2.5 mL of HEPES buffer mix and 2.5 mL of H:E buffer. The contents were mixed and sonicated for 3 min to yield a translucent lipid stock.
Compound Preparation: Compounds were stored as 5 mM stocks in neat DMSO as room temperature in glass vials. 5 mM stocks were diluted to 2 mM and then serially diluted (3×) in neat DMSO in 96 well polypropylene plates. From the serially diluted stocks, 3 uL was delivered into 250 uL of 25% DMSO (in water) to generate 5× compound stocks. Typically, the highest compound conc. was 24 uM.
The assay volume was kept at 25 uL. To each well of the reaction plate, 10 uL of lipid stock (1:1 ratio PI5P:DOPE) was delivered. This was followed by the addition of 5 uL of compound in 25% DMSO. Then, to each well, 5 uL of 2.5 nM (5×) typeIIA enzyme was delivered. The contents were mixed well and incubated for 1 h at 27 C. After 1 h, reaction was initiated by adding 5 uL of 50 uM ATP and the contents were mixed well with a multi-channel pipetteman. The final concentration of the reagents are as follows: 50 mM HEPES, pH 7.3, 10 mM MgCl2, 20 mM NaCl, 0.01% v/v triton-X100, 5% DMSO, 10 uM ATP, 80 uM (2 ug) PI5P, 2 ug DOPE, and 0.5 nM PIP4KIIA. Typically, the highest conc. of compounds was 4.8 uM and the lowest conc. was 0.
After 1 hr, the reaction was quenched by adding 25 uL of ADP Glo reagent. The contents were incubated for 1 hr. Afterwards, 50 uL of kinase detection reagent was delivered. The contents were incubated for another hour. The luminescence was read using Molecular Devices Paradigm plate reader. […] The blanks were averaged and subtracted from all other wells. Using a calibration curve, RLU was converted to uM ADP (product). IC50 was calculated by plotting the residual activity (expressed as % No inhibitor control) vs. log [Inh. conc.]

The target in assay [3] is T2, PIP4K 2A. The experiment in a line: ADP-glo kinase assay PIP4K 2A. The following applies: compounds listed under IC50 bin headings. Also noted: 4 nM PIP4K2A (full length protein, SignalChem); purchased SignalChem. The method, boiled down:
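Inhibition was calculated versus DMSO controls from ADP-Glo luminescence and fitted to IC50 over a 10-point, threefold series. Compound was first pre-incubated 15 min at room temperature with PIP4K2A (full-length; 4 nM in the enzyme/substrate mix) and PI(5)P diC8 (100 μM in that mix). The reaction then ran for 1 h after adding 60 μM ATP solution, in MOPS pH 7.2/MgCl2/Tween buffer.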
A general note: ADP-Glo turns the ADP formed in a reaction into a luminescent signal.

A value given as a limit tells only on which side of the number the result lay.

Regarding `CC1c2cc(Nc3cnc4c(c3)N3C(=O)CC[C@H]3CO4)ncc2-c2ccc(N3CCCC3=O)cc2N1C` (stereo partly drawn) [Example 44, (6aS)-2-((5,6-dimethyl-8-(2-oxopyrrolidin-1-yl)-5,6-dihydrobenzo[c][2,6]naphthyridin-3-yl)amino)-6,6a,7,8-tetrahydro-9H-pyrido[2,3-b]pyrrolo[1,2-d][1,4]oxazin-9-one], the IC50 (in general, the concentration at which inhibition is half-maximal) was 10 to 100 nM in assay [1], no more than 1 nM in assay [2] and 1 to 10 nM in assay [3].

With `COc1ncc(Nc2cc3c(cn2)-c2ccc(N4CCCC4=O)cc2OC3C)cc1NS(C)(=O)=O` (centres unmarked) [Example 88, N-(2-methoxy-5-((5-methyl-8-(2-oxopyrrolidin-1-yl)-5H-chromeno[4,3-c]pyridin-3-yl)amino)pyridin-3-yl)methanesulfonamide], the values for the IC50 in assay [1], in assay [2] and in assay [3] were 10 to 100 nM, 1 to 10 nM and 1 to 10 nM, respectively.

For the molecule `CC1Oc2cc(N3CCCC3=O)ccc2-c2cnc(Nc3cnc4c(c3)N(C(=O)C(C)(C)C)CCO4)cc21` (centres unmarked) [Example 86, 1-(5-methyl-3-((1-pivaloyl-2,3-dihydro-1H-pyrido[2,3-b][1,4]oxazin-7-yl)amino)-5H-chromeno[4,3-c]pyridin-8-yl)pyrrolidin-2-one], the IC50 is 1 to 10 nM in assay [1], no more than 1 nM in assay [2] and no more than 1 nM in assay [3].

As to `Cc1conc1-c1ccc2c(c1)OC(C)(C)c1cc(Nc3cnc4c(c3)N3C(=O)CC[C@H]3CO4)ncc1-2` [Example 209, (S)-2-((5,5-dimethyl-8-(4-methylisoxazol-3-yl)-5H-chromeno[4,3-c]pyridin-3-yl)amino)-6,6a,7,8-tetrahydro-9H-pyrido[2,3-b]pyrrolo[1,2-d][1,4]oxazin-9-one], the IC50 in assay [1] was 1 to 10 nM; in assay [2] it was no more than 1 nM.

In the case of `Cn1cnnc1-c1ccc2c(c1)OC(C)(C)c1nc(Nc3cnc4c(c3)N3C(=O)CC[C@H]3CO4)ncc1-2` [Example 210, (S)-2-((5,5-dimethyl-8-(4-methyl-4H-1,2,4-triazol-3-yl)-5H-chromeno[3,4-d]pyrimidin-3-yl)amino)-6,6a,7,8-tetrahydro-9H-pyrido[2,3-b]pyrrolo[1,2-d][1,4]oxazin-9-one], in assay [2], the IC50 is no more than 1 nM.

Regarding `C[C@@H]1Oc2cc(N3CCCC3=O)ccc2-c2cnc(Nc3cnc4c(c3)N3C(=O)CC[C@H]3CO4)cc21` [Example 193, (S)-2-(((S)-5-methyl-8-(2-oxopyrrolidin-1-yl)-5H-chromeno[4,3-c]pyridin-3-yl)amino)-6,6a,7,8-tetrahydro-9H-pyrido[2,3-b]pyrrolo[1,2-d][1,4]oxazin-9-one], the IC50 in assay [2] and in assay [3] was no more than 1 nM throughout.

As to `CC1Oc2cc(N3CCCC3=O)ccc2-c2cnc(Nc3cnc4c(c3)N3[C@H](CO4)CN(C)S3(=O)=O)cc21` (stereo partly drawn) [Example 187, 1-(5-methyl-3-(((S)-2-methyl-1,1-dioxido-2,3,3a,4-tetrahydropyrido[2,3-b][1,2,5]thiadiazolo[2,3-d][1,4]oxazin-8-yl)amino)-5H-chromeno[4,3-c]pyridin-8-yl)pyrrolidin-2-one], the IC50 in assay [1] was in the range of 100 to 1000 nM; in assay [2], 10 to 100 nM.

As to `CC1Oc2cc(N3CCCC3=O)ccc2-c2cnc(Nc3cncc(C4(C#N)CC4)c3)cc21` (centres unmarked) [Example 39, 1-(5-((5-methyl-8-(2-oxopyrrolidin-1-yl)-5H-chromeno[4,3-c]pyridin-3-yl)amino)pyridin-3-yl)cyclopropane-1-carbonitrile], the 50% inhibitory concentration (IC50) in assay [1] was 10 to 100 nM; in assay [2] it was no more than 1 nM.

In the case of `Cn1cnnc1-c1ccc2c(c1)OC(C)(C)c1cc(Nc3cnc4c(c3)N3C(=O)CC[C@H]3CO4)ncc1-2` [Example 211, (S)-2-((5,5-dimethyl-8-(4-methyl-4H-1,2,4-triazol-3-yl)-5H-chromeno[4,3-c]pyridin-3-yl)amino)-6,6a,7,8-tetrahydro-9H-pyrido[2,3-b]pyrrolo[1,2-d][1,4]oxazin-9-one], the IC50 in assay [1] is 1 to 10 nM; in assay [2], no more than 1 nM.

Consider `CC1Oc2cc(N3CCCC3=O)ccc2-c2cnc(Nc3cncc(NC(=O)c4ccc5cc[nH]c5c4)c3)cc21` (centres unmarked) [Example 108, N-(5-((5-methyl-8-(2-oxopyrrolidin-1-yl)-5H-chromeno[4,3-c]pyridin-3-yl)amino)pyridin-3-yl)-1H-indole-6-carboxamide], for which the IC50 in assay [1] was 10 to 100 nM; in assay [3], 1 to 10 nM.

Regarding `O=C1CCCN1c1ccc2c(c1)OCc1cc(Nc3cncc(N4CCNC4=O)c3)ncc1-2` [Example 160, 1-(5-((8-(2-oxopyrrolidin-1-yl)-5H-chromeno[4,3-c]pyridin-3-yl)amino)pyridin-3-yl)imidazolidin-2-one], the 50% inhibitory concentration (IC50) was in the range of 10 to 100 nM in assay [1] and 1 to 10 nM in assay [3].

For `CC1Oc2cc(N3CCCC3=O)ccc2-c2cnc(Nc3cncc(NC(=O)c4ccnnc4)c3)cc21` (centres unmarked) [Example 125, N-(5-((5-methyl-8-(2-oxopyrrolidin-1-yl)-5H-chromeno[4,3-c]pyridin-3-yl)amino)pyridin-3-yl)pyridazine-4-carboxamide], the concentration for half-maximal inhibition (IC50) lay within 10 to 100 nM in assay [1] and 1 to 10 nM in assay [3].

Regarding `CC1Oc2cc(N3CCCC3=O)ccc2-c2cnc(Nc3cncc(NC(=O)c4cncc(N)n4)c3)cc21` (centres unmarked) [Example 126, 6-amino-N-(5-((5-methyl-8-(2-oxopyrrolidin-1-yl)-5H-chromeno[4,3-c]pyridin-3-yl)amino)pyridin-3-yl)pyrazine-2-carboxamide], the IC50 in assay [1] fell in the range of 10 to 100 nM; in assay [3], 1 to 10 nM.

Turning to `CC1Oc2cc(N3CCCC3=O)ccc2-c2cnc(Nc3cncc(NC(=O)C4CCNC4=O)c3)cc21` (centres unmarked) [Example 104, N-(5-((5-methyl-8-(2-oxopyrrolidin-1-yl)-5H-chromeno[4,3-c]pyridin-3-yl)amino)pyridin-3-yl)-2-oxopyrrolidine-3-carboxamide], the half-maximal inhibitory concentration (IC50) in assay [1] was in the range of 10 to 100 nM; in assay [3], 1 to 10 nM.

`COc1ncc(Nc2cc3c(cn2)-c2ccc(N4CCCC4=O)cc2OC3(C)C)cc1NC(C)=O` [Example 191, N-(5-((5,5-dimethyl-8-(2-oxopyrrolidin-1-yl)-5H-chromeno[4,3-c]pyridin-3-yl)amino)-2-methoxypyridin-3-yl)acetamide]: the IC50 in assay [1] and in assay [3] was 100 to 1000 nM each time.

Values taken from patent US11584763B2, “Chromenopyridine derivatives as phosphatidylinositol phosphate kinase inhibitors” (HIBERCELL, INC., priority 2017, dated 2023).
